Assay results: patent US20040248859A1, “Medicinal compositions for treating secondary parathyroid hyperfunction and remedies for cardiovascular complications in association with treatment for secondary parathyroid hyperfunction” (priority 2001, published 2004)

Assays:
[1] = tested on: 5/6 nephrectomized rats (kidney failure model with 2HPT); assay: Ca and Pi in serum (serum Ca×Pi product) of 5/6 nephrectomized rats; type: in vivo, rat; conditions: for serum Ca×Pi product over the SNX control group: three times a week, 7 administrations
Description: (§1) Rats with 5/6 nephrectomy (5/6 nephrectomized rats) were used as an experimental model to examine the agent of the present invention for its effect on cardiovascular complications. Such 5/6 nephrectomized rats are widely used as an experimental nephritis model with 2HPT (Ichikawa et al., Nephrology, vol. 4, pp. 391-395, 1998).
(§2) Seven-week-old male SD rats (Japan SLC, Inc.) were subjected to 5/6 nephrectomy according to the method of Platt et al. (Platt R. et al., Clin. Sci. 11, 217-231, 1952) to remove the whole of the right kidney and 2/3 of the left kidney. The rats were then allowed to rest for 10 weeks to create a kidney failure model with 2HPT.
(§3) The nephrectomized rats were divided into 4 test groups: OCT 1.25 μg/kg group (8 rats), OCT 6.25 μg/kg group (8 rats), 1,25(OH)2D3 0.125 μg/kg group (8 rats) and 1,25(OH)2D3 0.625 μg/kg group (8 rats).
(§4) Starting at 10 weeks after surgery, the rats of each group were administered with a given dose of OCT or 1,25-dihydroxyvitamin D3 (each dissolved in phosphate buffer, pH 6.52) via the tail vein. Administration was conducted three times a week for a total of 7 administration (i.e., on Monday, Wednesday, Friday, Monday, Wednesday, Friday and Monday). Twenty-four hours after the last administration, the blood was collected from the abdominal descending aorta of each rat under ether anesthesia. The rats were then sacrificed by exsanguination and the heart and aorta were excised from each rat.
(§5) Six rats of sham-operated (Sham control) group were subjected to renal decapsulation alone instead of 5/6 nephrectomy and then treated in the same manner as used for the test groups, except that phosphate buffer (Ph 6.52) was administered instead of OCT or 1,25-dihydroxyvitamin D3. Likewise, 9 rats of SNX control group were treated in the same manner as used for the test groups, except that phosphate buffer (pH 6.52) was administered instead of OCT or 1,25-dihydroxyvitamin D3.
2. Ca and Pi in serum After serum was separated from the collected blood, Ca and Pi contained in the serum were measured with a Hitachi 7170-E autoanalyzer using an Autosera reagent (Daiichi Pure Chemicals Co., Ltd.) to determine the serum Ca×Pi product for each rat.
(§6) The relationship between Sham control group and SNX control group was analyzed by unpaired t-test. The relationship between SNX control group and each OCT- or 1,25(OH)2D3-administered group was analyzed by Dunnett's multiple comparison test.

[2] = tested on: 5/6 nephrectomized rats (kidney failure model with 2HPT); assay: Ca and Pi contents in individual organs (aorta and heart) of 5/6 nephrectomized rats; type: in vivo, rat
Description: as §1, §2, §3, §4, §5
Each heart and aorta were lyophilized for 24 hours in a FREEZE DRYER FD-5N (trade name, EYELA) and then treated for 48 hours with a chloroform/methanol solution (chloroform:methanol=2:1, special-reagent-grade chloroform and methanol were both purchased from Junsei Chemical Co., Ltd.). Subsequently, each organ was dehydrated for 3 hours with acetone (special reagent grade, Junsei Chemical Co., Ltd.) and then allowed to stand at room temperature for 24 hours. After delipidization and dehydration, each organ was transferred to a crucible and weighed to determine dry weight (Mettler). Ashing was carried out in a muffle furnace KDF S90 (trade name, Denken Co., Ltd., Kyoto, Japan) at 900° C. for 12 hours. The ashed sample was mixed with […] hydrochloric acid (1.0 mL), allowed to stand for 3 hours to dissolve sufficiently, and then collected in a polypropylene tube. The crucible was washed with purified water (1.0 mL), which was then also collected in the tube. Each sample was stored at 4° C. until measurement. Ca and Pi were measured with a Hitachi 7170-E autoanalyzer to calculate the Ca and Pi contents per gram of each organ.
as §6

[3] = tested on: 5/6 nephrectomized rats (kidney failure model with 2HPT); assay: Parathyroid hormone levels in blood (serum PTH, radioimmunoassay) of 5/6 nephrectomized rats; type: in vivo, rat; conditions: for effect on serum PTH levels: all doses (OCT 1.25 and 6.25 μg/kg, 1,25(OH)2D3 0.125 and 0.625 μg/kg), versus SNX control
Description: as §1, §2, §3
as §4, with “rat. […]” for “rat.”
After serum was separated from the collected blood, the level of parathyroid hormone (PTH) contained in the serum was measured with a commercially available radioimmunoassay kit (Immutopics, Inc., USA).
as §6

[4] = in vivo; cited from earlier work
[5] = 5/6 nephrectomized rats, via tail vein
[6] = 1,25(OH)2D3 0.125 μg/kg group versus OCT 6.25 μg/kg group (almost the same serum Ca×Pi product)

| SMILES | serum Ca×Pi product over the SNX control group ([1]; 0.125 μg/kg via tail vein) | serum Ca×Pi product over the SNX control group ([1]; 0.625 μg/kg via tail vein, 24 h after last administration, p<0.001) | minimum dose required to produce an elevating action on Ca×Pi product [1, 5] | serum Ca×Pi product, comparison of the two groups ([1]; OCT 6.25 μg/kg group versus 1,25(OH)2D3 0.125 μg/kg group) | Ca content in the aorta over the SNX control group ([2]; 0.125 and 0.625 μg/kg, p<0.001) | Ca content in the heart over the SNX control group ([2]; 0.125 and 0.625 μg/kg, p<0.001) | Pi content in the aorta over the SNX control group ([2]; 0.125 and 0.625 μg/kg, p<0.001) | Pi content in the heart over the SNX control group ([2]; 0.125 and 0.625 μg/kg, p<0.001) | deposition of Ca in the aorta as compared to OCT [2, 6] | deposition of Pi in the aorta as compared to OCT [2, 6] | deposition of Pi in the heart as compared to OCT ([2]; 1,25(OH)2D3 0.125 μg/kg group versus OCT 6.25 μg/kg group, p<0.01) | deposition of Ca in the heart as compared to OCT ([2]; 1,25(OH)2D3 0.125 μg/kg group versus OCT 6.25 μg/kg group, p<0.05) | dose at which the therapeutic effect on secondary hyperparathyroidism (decreasing effect on PTH levels) can be produced [3, 5] | effect on serum PTH levels [3] | blood half-life [4] | blood calcium levels ([1]; rat, in vivo) | deposition of Ca and Pi in the aorta and heart, OCT-administered groups versus 1,25(OH)2D3-administered groups ([2]; rat, in vivo) |
| --- | --- | --- | --- | --- | --- | --- | --- | --- | --- | --- | --- | --- | --- | --- | --- | --- | --- |
| C=C1/C(=C\C=C2/CCC[C@]3(C)[C@@H]([C@H](C)CCCC(C)(C)O)CC[C@@H]23)C[C@@H](O)C[C@@H]1O [1,25-dihydroxyvitamin D3] | no significant elevation | significant elevation | 0.625 µg/kg | almost the same level | dose-dependent significant increases | dose-dependent significant increases | dose-dependent significant increases | dose-dependent significant increases | apparently higher deposition | apparently higher deposition | significantly higher deposition | significantly higher deposition | 0.125 µg/kg | decreasing effect on PTH levels at all doses | ≥ 1 h |  |  |
| C=C1/C(=C\C=C2/CCC[C@]3(C)[C@@H]([C@H](C)OCCC(C)(C)O)CC[C@@H]23)C[C@@H](O)C[C@@H]1O [OCT, 1α,3β-dihydroxy-20S-(3-hydroxy-3-methylbutyloxy)-9,10-seco-5,7,10(19)-pregnatriene] |  |  |  |  |  |  |  |  |  |  |  |  |  | decreasing effect on PTH levels at all doses | about 20 minutes | does not cause increase | significantly lower deposition |
